In general, MIC refers to the least concentration at which growth counts as inhibited. One may read the EC50 as the concentration at which the effect is half-maximal.

In brackets after ≈: the same amount, converted by molar mass. Activity calls are given as the source filed them. The rule behind the calls is not given here.

Consider five compounds from ChEMBL document CHEMBL1156491, “Unexpected inhibition of peptidoglycan LD-transpeptidase from Enterococcus faecium by the beta-lactam imipenem” (J Biol Chem, 2007).

The subject of experiment [1] is Enterococcus faecium. The experiment can be described thus: Inhibition of Enterococcus faecium M512 PBP5fm transpeptidase activity assessed as lactoyl penta-aspartate-peptide level. Also on record: scale not given: the % may be the effect or the level left.
For experiment [2], the system named is Enterococcus faecium. The experiment can be described thus: Inhibition of Enterococcus faecium M512 PBP5fm transpeptidase activity assessed as lactoyl tetra-peptide level. Also on record: scale not given: the % may be the effect or the level left.
For experiment [3], the system named is Enterococcus faecium. Briefly: Inhibition of Enterococcus faecium M512 LDtfm transpeptidase activity assessed as tri-aspartate tri multimer containing L-Lys3 to D-Asp-L-Lys3 cross links at 8 ug/ml. Also on record: scale not given: the % may be the effect or the level left.
The subject of experiment [4] is Enterococcus faecium. The experiment can be described thus: Inhibition of Enterococcus faecium M512 LDtfm transpeptidase activity assessed as tri-aspartate-tetra-aspartate multimer containing L-Lys3 to D-Asp-L-Lys3 cross links at 8 ug/ml. Further details: scale not given: the % may be the effect or the level left.
The subject of experiment [5] is Enterococcus faecium. The experiment can be described thus: Inhibition of Enterococcus faecium M512 LDtfm transpeptidase activity assessed as tri-aspartate-tri-aspartate-tetra-aspartate multimer containing L-Lys3 to D-Asp-L-Lys3 cross links at 8 ug/ml. Also on record: scale not given: the % may be the effect or the level left.
The test system of experiment [6] is Enterococcus faecium. The experiment can be described thus: Antimicrobial activity against Enterococcus faecium M512 by agar dilution method after 48 hrs. Conditions: M512, 48 h. The format is functional. Background: In agar dilution the substance is mixed into plates at graded concentrations.
Experiment [7] deals with Enterococcus faecium. Briefly: Inhibition of Enterococcus faecium M512 LDtfm transpeptidase activity assessed as tri-aspartate-tri-aspartate-tetra multimer containing L-Lys3 to D-Asp-L-Lys3 cross links at 8 ug/ml. Also on record: scale not given: the % may be the effect or the level left.
Experiment [8] deals with Enterococcus faecium. Briefly: Inhibition of Enterococcus faecium M512 LDtfm transpeptidase activity assessed as tri-aspartate-tri-aspartate-penta-aspartate multimer containing L-Lys3 to D-Asp-L-Lys3 cross links at 8 ug/ml. Also on record: scale not given: the % may be the effect or the level left.
The test system of experiment [9] is Enterococcus faecium. Briefly: Inhibition of Enterococcus faecium M512 LDtfm transpeptidase activity assessed as tri-aspartate-tri-aspartate multimer containing L-Lys3 to D-Asp-L-Lys3 cross links at 8 ug/ml. Further details: scale not given: the % may be the effect or the level left.
Experiment [10] concerns Enterococcus faecium. Briefly: Inhibition of Enterococcus faecium M512 LDtfm transpeptidase activity assessed as tri-aspartate-tri-aspartate-tri-aspartate multimer containing L-Lys3 to D-Asp-L-Lys3 cross links at 8 ug/ml. Further details: scale not given: the % may be the effect or the level left.
The test system of experiment [11] is Enterococcus faecium. Briefly: Inhibition of Enterococcus faecium M512 LDtfm transpeptidase activity assessed as tri-aspartate-tetra multimer containing L-Lys3 to D-Asp-L-Lys3 cross links at 8 ug/ml. Also on record: scale not given: the % may be the effect or the level left.
Experiment [12] deals with Enterococcus faecium. Briefly: Inhibition of Enterococcus faecium M512 PBP5fm transpeptidase activity assessed as lactoyl penta-peptide level. Further details: scale not given: the % may be the effect or the level left.
Experiment [13] relates to Enterococcus faecium. The experiment can be described thus: Inhibition of Enterococcus faecium M512 LDtfm transpeptidase activity assessed as tri-aspartate-penta multimer containing L-Lys3 to D-Asp-L-Lys3 cross links at 8 ug/ml. Also on record: scale not given: the % may be the effect or the level left.
Experiment [14] has as its system Enterococcus faecium. The experiment can be described thus: Inhibition of Enterococcus faecium M512 PBP5fm transpeptidase activity assessed as lactoyl tri-aspartate-peptide level. Also on record: scale not given: the % may be the effect or the level left.
Experiment [15] concerns Enterococcus faecium. Briefly: Antimicrobial activity against Enterococcus faecium D344S by agar dilution method after 48 hrs. The experiment is classed as functional.
For experiment [16], the system named is Enterococcus faecium. The experiment can be described thus: Inhibition of Enterococcus faecium M512 PBP5fm transpeptidase activity assessed as lactoyl tetra-aspartate-peptide level. Also on record: scale not given: the % may be the effect or the level left.
Experiment [17] in a line: Inhibition of Enterococcus faecium LD-transpeptidase assessed by formation of Ac2-L-Lys-D-[14C]Ala from Ac2-L-Lys-D-Ala and D-[14C]Ala.
In experiment [18] the test system is Enterococcus faecium. Briefly: Inhibition of Enterococcus faecium M512 LDtfm transpeptidase activity assessed as tri-aspartate-penta-aspartate multimer containing L-Lys3 to D-Asp-L-Lys3 cross links at 8 ug/ml. Also on record: scale not given: the % may be the effect or the level left.
Experiment [19] deals with Enterococcus faecium. Briefly: Inhibition of Enterococcus faecium M512 PBP5fm transpeptidase activity assessed as lactoyl tripeptide level. Also on record: scale not given: the % may be the effect or the level left.
Experiment [20] concerns Enterococcus faecium. The experiment can be described thus: Inhibition of Enterococcus faecium LD-transpeptidase assessed by formation of Ac2-L-Lys-D-[14C]Ala from Ac2-L-Lys-D-Ala and D-[14C]Ala at 0.5 ug/ml.
The test system of experiment [21] is Enterococcus faecium. Briefly: Inhibition of Enterococcus faecium M512 PBP5fm transpeptidase activity assessed as tetra -aspartate-penta-aspartate multimer containing D-Ala4 to D-Asp-L-Lys3 cross links at 128 ug/ml by mass spectrometry. Further details: scale not given: the % may be the effect or the level left.
Experiment [22] deals with Enterococcus faecium. Briefly: Inhibition of Enterococcus faecium M512 PBP5fm transpeptidase activity assessed as tetra -aspartate-penta multimer containing D-Ala4 to D-Asp-L-Lys3 cross links at 128 ug/ml by mass spectrometry. Also on record: scale not given: the % may be the effect or the level left.
The subject of experiment [23] is Enterococcus faecium. The experiment can be described thus: Inhibition of Enterococcus faecium M512 PBP5fm transpeptidase activity assessed as tetra -aspartate-tetra multimer containing D-Ala4 to D-Asp-L-Lys3 cross links at 128 ug/ml by mass spectrometry. Further details: scale not given: the % may be the effect or the level left.
The subject of experiment [24] is Enterococcus faecium. The experiment can be described thus: Inhibition of Enterococcus faecium M512 PBP5fm transpeptidase activity assessed as tetra-aspartate-tetra-aspartate-tetra-aspartate multimer containing D-Ala4 to D-Asp-L-Lys3 cross links at 128 ug/ml by mass spectrometry. Further details: scale not given: the % may be the effect or the level left.
Experiment [25] deals with Enterococcus faecium. Briefly: Inhibition of Enterococcus faecium M512 PBP5fm transpeptidase activity assessed as tetra -aspartate-tetra -aspartate-tri-aspartate multimer containing D-Ala4 to D-Asp-L-Lys3 cross links at 128 ug/ml by mass spectrometry. Also on record: scale not given: the % may be the effect or the level left.
The test system of experiment [26] is Enterococcus faecium. Briefly: Inhibition of Enterococcus faecium M512 PBP5fm transpeptidase activity assessed as tetra-aspartate-tri-aspartate multimer containing D-Ala4 to D-Asp-L-Lys3 cross links at 128 ug/ml by mass spectrometry. Further details: scale not given: the % may be the effect or the level left.
Experiment [27] has as its system Enterococcus faecium. The experiment can be described thus: Inhibition of Enterococcus faecium LD transpeptidase assessed as enzyme aduct at 3.4 uM by mass spectrometry.
In experiment [28] the test system is Enterococcus faecium. Briefly: Inhibition of Enterococcus faecium M512 […] transpeptidase activity assessed as tetra-aspartate-tri multimer containing D-Ala4 to D-Asp-L-Lys3 cross links at 128 ug/ml by mass spectrometry. Further details: scale not given: the % may be the effect or the level left.
In experiment [29] the test system is Enterococcus faecium. The experiment can be described thus: Inhibition of Enterococcus faecium M512 PBP5fm transpeptidase activity assessed as tetra -aspartate-tetra-aspartate multimer containing D-Ala4 to D-Asp-L-Lys3 cross links at 128 ug/ml by mass spectrometry. Also on record: scale not given: the % may be the effect or the level left.
Experiment [30] has as its system Enterococcus faecium. The experiment can be described thus: Inhibition of Enterococcus faecium M512 PBP5fm transpeptidase activity assessed as tetra-aspartate-tetra-aspartate-penta-aspartate multimer containing D-Ala4 to D-Asp-L-Lys3 cross links at 128 ug/ml by mass spectrometry. Further details: scale not given: the % may be the effect or the level left.

Take `CC1(C)S[C@@H]2[C@H](NC(=O)[C@H](N)c3ccccc3)C(=O)N2[C@H]1C(=O)O` [AMPICILLIN]: the Activity with Enterococcus faecium [1] is 3.7%; with Enterococcus faecium [2], 0.5%; in the experiment with Enterococcus faecium [3], 2.8%; with Enterococcus faecium [4], 6.8%; in the experiment on Enterococcus faecium [5] it was 2.7%; with Enterococcus faecium [7], 3%. Moreover, the Activity in the experiment with Enterococcus faecium [8] was found to be 1.8%; in the experiment with Enterococcus faecium [9], 18.7%; in the experiment with Enterococcus faecium [10], 6.1%; with Enterococcus faecium [11], 3.7%; in the experiment with Enterococcus faecium [12], 1.3%; in the experiment on Enterococcus faecium [13], 6.8%. Moreover, the Activity was found to be 18.4% in the experiment with Enterococcus faecium [14], 10.6% in the experiment on Enterococcus faecium [16], 6.1% with Enterococcus faecium [18] and 7% in the experiment with Enterococcus faecium [19]. Besides, the MIC against Enterococcus faecium [6] was more than 2000 µg/mL; against Enterococcus faecium [15], 0.06 µg/mL (≈ 0.172 µM). In experiment [17], this compound had an EC50 of more than 3200 µg/mL.

For the compound `CC1C(S[C@@H]2CN[C@H](C(=O)Nc3cccc(C(=O)O)c3)C2)=C(C(=O)O)N2C(=O)[C@H]([C@H](C)O)[C@@H]12` (some centres not stated) [ETRAPENEM], the MIC with Enterococcus faecium [6] was 16 µg/mL (≈ 33.6 µM); against Enterococcus faecium [15], 1 µg/mL (≈ 2.1 µM).

Turning to `CO/N=C(\C(=O)N[C@@H]1C(=O)N2C(C(=O)O)=C(CSc3nc(=O)c(O)nn3C)CS[C@H]12)c1csc(N)n1` [CEFTRIAXONE], the MIC with Enterococcus faecium [6] was 128 µg/mL (≈ 231 µM); in the experiment on Enterococcus faecium [15] it was 2 µg/mL (≈ 3.61 µM). The Activity with Enterococcus faecium [20] turned out to be 200 µg/mL. Also, the half-maximal effective concentration (EC50) in [17] is 19 µg/mL (≈ 34.3 µM).

Turning to `CC(O)[C@H]1C(=O)N2C(C(=O)O)=C(SCCNC=N)C[C@H]12` (single isomer, unassigned) [IMIPENEM ANHYDROUS], the Activity in the experiment on Enterococcus faecium [21] came out at 11.9%; with Enterococcus faecium [1], 5.4%; in the experiment with Enterococcus faecium [2] it was 2.2%; in the experiment on Enterococcus faecium [22], 0.8%; in the experiment with Enterococcus faecium [23] it was 1.7%; with Enterococcus faecium [24], 1.6%. For the same compound, the Activity in the experiment with Enterococcus faecium [25] stood at 24.7%; with Enterococcus faecium [26] it was 23.8%; in the experiment on Enterococcus faecium [28] it was 0.9%; with Enterococcus faecium [12] it was 2.8%; in the experiment on Enterococcus faecium [29], 12%; in the experiment with Enterococcus faecium [14], 4.5%. Moreover, the figures for the Activity in the experiment with Enterococcus faecium [30], with Enterococcus faecium [16] and in the experiment on Enterococcus faecium [19] were 3.3%, 3% and 1.4%, respectively. The MIC with Enterococcus faecium [6] was found to be 0.5 µg/mL (≈ 1.67 µM); against Enterococcus faecium [15], 0.25 µg/mL (≈ 0.835 µM). The outcome in the experiment with Enterococcus faecium [27] and in the experiment on Enterococcus faecium [20] was Active. The compound further returned an EC50 in experiment [17] of 0.077 µg/mL (≈ 0.257 µM).

For the compound `CC(O)[C@H]1C(=O)N2C(C(=O)O)=C(S[C@@H]3CN[C@H](C(=O)N(C)C)C3)[C@H](C)[C@H]12` (single isomer, unassigned) [MEROPENEM], the MIC with Enterococcus faecium [6] stood at 8 µg/mL (≈ 20.9 µM); in the experiment on Enterococcus faecium [15], 1 µg/mL (≈ 2.61 µM).
